Test results from patent publication EP4722211A1, “FGFR2/3 SELECTIVE INHIBITOR, PHARMACEUTICAL COMPOSITION AND USE THEREOF” (Changchun Genescience Pharmaceutical Co., Ltd., priority 2023, dated 2024).
Like-named read-outs stand apart in the source and are kept apart here.

Key:
Ba/F3-FGFR1 cells = assay: Cell proliferation inhibition, CTG method (Ba/F3-FGFR1); format: cell-based; conditions: 72 hrs
Protocol: (§1) The CTG method was used to detect the inhibitory effect of the compound on the proliferation of Ba/F3-FGFR1, Ba/F3-FGFR2, Ba/F3-FGFR3, and Ba/F3-FGFR4 cells. The highest concentration tested was 3000 nM, which was three-fold diluted to give 10 concentrations. The test was duplicated.
(§2) • a) Ba/F3-FGFR1, Ba/F3-FGFR2, Ba/F3-FGFR3, and Ba/F3-FGFR4 were cultured to exponential growth period for later use. […] 30 µL of Ba/F3-FGFR1, Ba/F3-FGFR2, Ba/F3-FGFR3, or Ba/F3-FGFR4 (500/well) was uniformly seeded in a 384-well black-edge cell culture plate containing the compound, having the wells at the edge blocked with 50 µL PBS, and cultured in an incubator with CO2 at 37°C for 72 hrs. • d) 30 µL of Cell-Titer-Glo reagent was added to each well, shaken and mixed evenly on a shaker, and then incubated at 37°C for 30 min. Then the signal was detected on a microplate reader after the signal was stable.

Ba/F3-FGFR2 cells = assay: Cell proliferation inhibition, CTG method (Ba/F3-FGFR2); format: cell-based; conditions: 72 hrs
Protocol: as §1, §2

Ba/F3-FGFR3 cells = assay: Cell proliferation inhibition, CTG method (Ba/F3-FGFR3); format: cell-based; conditions: 72 hrs
Protocol: as §1
• a) Ba/F3-FGFR1, Ba/F3-FGFR2, Ba/F3-FGFR3, and Ba/F3-FGFR4 were cultured to exponential growth period for later use. Complete medium: RPMI1640 medium, 10% FBS, 1% GlutaMAX and P/S, 10 ng/mL FGF1, 10 µg/mL Heparin,10 µM 2-mercaptoethanol, 2 µg/mL puromycin. • b) The stock solution of the compound of 3000 nM was diluted into a 384 cell culture plate using the ECHO liquid handling station, and centrifuged at 1000 g for 1 min. • c) The cells were digested. 30 µL of Ba/F3-FGFR1, Ba/F3-FGFR2, Ba/F3-FGFR3, or Ba/F3-FGFR4 (500/well) was uniformly seeded in a 384-well black-edge cell culture plate containing the compound, having the wells at the edge blocked with 50 µL PBS, and cultured in an incubator with CO2 at 37°C for 72 hrs. • d) 30 µL of Cell-Titer-Glo reagent was added to each well, shaken and mixed evenly on a shaker, and then incubated at 37°C for 30 min. Then the signal was detected on a microplate reader after the signal was stable.

Ba/F3-FGFR4 cells = assay: Cell proliferation inhibition, CTG method (Ba/F3-FGFR4); format: cell-based; conditions: 72 hrs
Protocol: as §1, §2

[1] = Pharmacokinetic study in SD rats after oral gavage, plasma by LC/MS/MS; format: in vivo; conditions: rat, 2 mg/kg, 2mpk; for AUC(0-inf): read-out: AUCINF_pred; for MRT inf: read-out: MRTINF_pred
Protocol: The SD rats were used as test animals. The drug concentration in plasma at different time points was determined by LC/MS/MS method after the compound of the present invention was administered to the SD rats by oral gavage. The pharmacokinetic behavior of the compound of the present invention in SD rats was studied and the pharmacokinetic characteristics were evaluated.
24 SD Rat rats (female:male 1:1), purchased from Shanghai Ji Hui Laboratory Animal Breeding Co., Ltd., animal production license SCXK (Shanghai) 2017-0012, were divided into 6 groups.
The prescription was 5% DMSO + 60% PEG300 + 35% glucose aqueous solution. A proper amount of the representative compound of the present invention (converted according to the purity and salt coefficient) was weighed. A prescribed amount of DMSO was added, and a clear and transparent solution was obtained by vortex. Then a prescribed amount of PEG300 was added, and mixed by vortex. Then, a prescribed amount of a glucose aqueous solution was added. A 0.6 mg/mL or 2 mg/mL solution was obtained. During the preparation, if a solution cannot be obtained, ultrasonication in a water bath at a temperature not higher than 60°C can be performed to facilitate the dissolution.
Rats were administered by oral gavage (2mpk) after fasting for one night.
At 15 min, 30 min, 1 hr, 2 hrs, 4 hrs, 6 hrs, 8 hrs, and 24 hrs after administration, about 30 µL blood samples were collected into an anticoagulation tube containing the anticoagulant EDTA-K2, and centrifuged within 30 minutes to obtain the plasma. The whole blood sample was placed on wet ice before centrifugation. All of the collected plasma samples were stored on dry ice or at a temperature not higher than -70°C before analysis and detection. Liquid chromatography-tandem mass spectrometry (LC/MS/MS) was used to determine the original drug concentration in the plasma and the administered solution.

FGFR1 = target: T1, FGFR1 (Homo sapiens, UniProt P11362); assay: Kinase inhibitory activity by HTRF method (FGFR1); format: biochemical; conditions: highest concentration 3000 nM, 10 concentrations, duplicate
T1 construct: purchased Invitrogen PR4660A
Protocol: (§3) The inhibitory activity of the compounds on FGFR1 and FGFR3 kinases was tested by HTRF method. The highest concentration tested was 3000 nM, which was three-fold diluted to give 10 concentrations. The test was duplicated. […]

FGFR3 = target: T2, FGFR3 (Homo sapiens, UniProt P22607); assay: Kinase inhibitory activity by HTRF method (FGFR3); format: biochemical; conditions: highest concentration 3000 nM, 10 concentrations, duplicate
T2 construct: purchased Invitrogen PR4631B
Protocol: as §3

[2] = both sexes, Sprague-Dawley (SD)

T1 sequence (P11362 22-822): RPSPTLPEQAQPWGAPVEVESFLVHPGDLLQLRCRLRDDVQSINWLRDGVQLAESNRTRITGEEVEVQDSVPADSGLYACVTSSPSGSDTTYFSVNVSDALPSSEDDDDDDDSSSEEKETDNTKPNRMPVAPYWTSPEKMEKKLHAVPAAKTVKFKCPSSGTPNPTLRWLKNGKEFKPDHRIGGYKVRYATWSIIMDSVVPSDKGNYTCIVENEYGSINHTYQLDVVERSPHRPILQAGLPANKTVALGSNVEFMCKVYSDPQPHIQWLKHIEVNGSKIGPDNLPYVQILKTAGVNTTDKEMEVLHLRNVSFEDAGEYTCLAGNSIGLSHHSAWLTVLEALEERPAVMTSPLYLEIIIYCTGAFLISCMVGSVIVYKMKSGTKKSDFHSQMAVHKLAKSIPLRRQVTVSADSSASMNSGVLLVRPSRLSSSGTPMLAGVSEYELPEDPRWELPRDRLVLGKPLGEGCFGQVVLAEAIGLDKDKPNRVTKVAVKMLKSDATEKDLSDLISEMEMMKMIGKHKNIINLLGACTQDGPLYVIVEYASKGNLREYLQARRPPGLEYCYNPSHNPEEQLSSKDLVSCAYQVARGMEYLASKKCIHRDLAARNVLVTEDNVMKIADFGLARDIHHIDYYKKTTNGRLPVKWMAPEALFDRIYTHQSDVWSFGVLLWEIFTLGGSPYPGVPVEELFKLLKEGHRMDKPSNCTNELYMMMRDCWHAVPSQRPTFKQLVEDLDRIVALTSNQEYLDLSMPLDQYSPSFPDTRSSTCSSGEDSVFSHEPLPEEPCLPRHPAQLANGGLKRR
T2 sequence (P22607 23-806): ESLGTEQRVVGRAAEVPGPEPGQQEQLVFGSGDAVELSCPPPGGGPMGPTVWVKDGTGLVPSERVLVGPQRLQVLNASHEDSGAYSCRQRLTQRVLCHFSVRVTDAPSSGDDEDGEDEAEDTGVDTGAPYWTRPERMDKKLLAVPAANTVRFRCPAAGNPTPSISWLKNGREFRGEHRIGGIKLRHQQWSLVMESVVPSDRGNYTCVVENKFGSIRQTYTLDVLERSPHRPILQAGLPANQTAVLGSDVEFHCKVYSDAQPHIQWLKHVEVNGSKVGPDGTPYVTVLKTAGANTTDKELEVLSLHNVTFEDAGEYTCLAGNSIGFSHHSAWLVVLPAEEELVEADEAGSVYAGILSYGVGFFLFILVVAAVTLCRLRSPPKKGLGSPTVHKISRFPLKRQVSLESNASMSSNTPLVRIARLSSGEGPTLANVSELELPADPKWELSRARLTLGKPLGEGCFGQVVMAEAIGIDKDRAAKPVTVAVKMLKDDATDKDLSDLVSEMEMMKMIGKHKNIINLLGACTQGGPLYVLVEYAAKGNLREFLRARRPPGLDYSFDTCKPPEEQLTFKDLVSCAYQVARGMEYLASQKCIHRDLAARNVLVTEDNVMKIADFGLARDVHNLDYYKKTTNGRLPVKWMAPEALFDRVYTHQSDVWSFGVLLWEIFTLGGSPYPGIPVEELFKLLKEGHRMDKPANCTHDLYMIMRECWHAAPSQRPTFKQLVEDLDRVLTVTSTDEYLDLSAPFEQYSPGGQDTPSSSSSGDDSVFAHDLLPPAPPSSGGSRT

| SMILES | IC50 (Ba/F3-FGFR1 cells) [nM] | IC50 (Ba/F3-FGFR2 cells) [nM] | IC50 (Ba/F3-FGFR3 cells) [nM] | IC50 (Ba/F3-FGFR4 cells) [nM] | further results |
| --- | --- | --- | --- | --- | --- |
| Cc1nn(CC(C)(C)O)c(C)c1-c1ccc(-c2n[nH]c3ccc(O[C@H](C)c4c(Cl)cncc4Cl)nc23)cn1 [Cpd-158A] | 23.6 | 2 | 2.6 | 55.4 | – |
| C[C@@H](Oc1ccc2[nH]nc(-c3ccc(C4=CCS(=O)(=O)CC4)nc3)c2n1)c1c(Cl)cncc1Cl [Cpd-02A, (R)-4-(5-(5-(1-(3,5-dichloropyridin-4-yl)ethoxy)-1H-pyrazolo[4,3-b]pyridin-3-yl)pyridin-2-yl)-3,6-dihydro-2H-thiopyran 1,1-dioxide] | 23.9 | – | 5.06 | – | – |
| C[C@@H](Oc1ccc2[nH]nc(-c3ccc(N4CCN(S(C)(=O)=O)CC4)nc3)c2n1)c1c(Cl)cncc1Cl [Cpd-119A] | 45.9 | – | 7.3 | – | – |
| CCN1CCN(c2ccc(Nc3cc(N(C)C(=O)Nc4c(Cl)c(OC)cc(OC)c4Cl)ncn3)cc2)CC1 [Infigratinib, reference compound] | 8.1 | 4 | 11.9 | 277 | AUC(0-t) [1, 2]: 103 ng·h/mL; Cmax [1, 2]: 22.2 ng/mL; Tmax [1, 2]: 3 h; half-life [1, 2]: 1.1 h; AUC(0-inf) [1, 2]: 106 ng·h/mL; MRT inf [1, 2]: 3.1 h |
| CC(Oc1ccc2[nH]nc(-c3ccc(S(C)(=N)=O)nc3)c2n1)c1c(Cl)cncc1Cl (single isomer, unassigned) [Cpd-01C, (5-(5-(1-(3,5-dichloropyridin-4-yl)ethoxy)-1H-pyrazolo[4,3-b]pyridin-3-yl)pyridin-2-yl)(imino)(methyl)-λ^6-sulfonyl ketone] | – | – | – | – | IC50 (FGFR1): 34.8 nM; IC50 (FGFR3): 4.8 nM |
| CC(Oc1ccc2[nH]nc(-c3ccc(S(C)(=N)=O)nc3)c2n1)c1c(Cl)cncc1Cl (single isomer, unassigned) [Cpd-01D, (5-(5-(1-(3,5-dichloropyridin-4-yl)ethoxy)-1H-pyrazolo[4,3-b]pyridin-3-yl)pyridin-2-yl)(imino)(methyl)-λ^6-sulfonyl ketone] | – | – | – | – | IC50 (FGFR1): 36.1 nM; IC50 (FGFR3): 6.2 nM |
| C[C@@H](Oc1ccc2[nH]nc(-c3cnc(C4=CCS(=O)(=O)CC4)c(F)c3)c2n1)c1c(Cl)cncc1Cl [Cpd-03A, (R)-4-(5-(5-(1-(3,5-dichloropyridin-4-yl)ethoxy)-1H-pyrazolopyridin-3-yl)-3-fluoropyridin-2-yl)-3,6-dihydro-2H-thiapyran 1,1-dioxide] | 14.2 | 8.4 | 4.2 | 33.8 | AUC(0-t) [1]: 86.2 ng·h/mL; Cmax [1]: 24.4 ng/mL; Tmax [1]: 1 h; half-life [1]: 1.5 h; AUC(0-inf) [1]: 91.5 ng·h/mL; MRT inf [1]: 2 h |

Further lines, with some results ahead:

| IC50 (Ba/F3-FGFR1 cells) [nM] | IC50 (Ba/F3-FGFR2 cells) [nM] | IC50 (Ba/F3-FGFR3 cells) [nM] | IC50 (Ba/F3-FGFR4 cells) [nM] | SMILES | further results |
| --- | --- | --- | --- | --- | --- |
| 123 | 16.7 | 13.6 | 80.4 | C[C@@H](Oc1ccc2[nH]nc(-c3ccc(N4CCC(C(C)(C)O)CC4)nc3)c2n1)c1c(Cl)cncc1Cl [Cpd-124A] | – |
| 32.6 | 3.6 | 4 | 29.8 | Cc1nn(CC(C)(C)O)cc1-c1ncc(-c2n[nH]c3ccc(O[C@H](C)c4c(Cl)cncc4Cl)nc23)cc1F [Cpd-162A, (R)-1-(4-(5-(5-(1-(3,5-dichloropyridin-4-yl)ethoxy)-1H-pyrazolo[4,3-b]pyridin-3-yl)-3-fluoropyridin-2-yl)-3-methyl-1H-pyrazol-1-yl)-2-methyl-2-propanol] | – |
| 98.3 | 11.7 | 15.4 | 237 | Cc1nn(CC(C)(C)O)c(C)c1-c1ncc(-c2n[nH]c3ccc(O[C@H](C)c4c(Cl)cncc4Cl)nc23)cc1F [Cpd-161A, (R)-1-(4-(5-(5-(1-(3,5-dichloropyridin-4-yl)ethoxy)-1H-pyrazolo[4,3-b]pyridin-3-yl)-3-fluoropyridin-2-yl)-3,5-dimethyl-1H-pyrazol-1-yl)-2-methyl-2-propanol] | – |
| 31.5 | 3.5 | 4.9 | 72.9 | Cc1cc2[nH]nc(-c3ccc(-c4c(C)nn(CC(C)(C)O)c4C)nc3)c2nc1O[C@H](C)c1c(Cl)cncc1Cl [Cpd-175A, (R)-1-(4-(5-(5-(1-(3,5-dichloropyridin-4-yl)ethoxy)-6-methyl-1H-pyrazolo[4,3-b]pyridin-3-yl)pyridin-2-yl)-3,5-dimethyl-1H-pyrazol-1-yl)-2-methyl-2-propanol] | AUC(0-t) [1, 2]: 359 ng·h/mL; Cmax [1, 2]: 82.6 ng/mL; Tmax [1, 2]: 2 h; half-life [1, 2]: 3.2 h; AUC(0-inf) [1, 2]: 508 ng·h/mL; MRT inf [1, 2]: 3.5 h |
| 31.4 | 10.6 | 9.7 | 76.3 | Cc1nn(C2CC2)cc1-c1ccc(-c2n[nH]c3ccc(O[C@H](C)c4c(Cl)cncc4Cl)nc23)cn1 [Cpd-145A, (R)-3-(6-(1-cyclopropyl-3-methyl-1H-pyrazol-4-yl)pyridin-3-yl)-5-(1-(3,5-dichloropyridin-4-yl)ethoxy)-1H-pyrazolo[4,3-b]pyridine] | AUC(0-t) [1, 2]: 1570 ng·h/mL; Cmax [1, 2]: 186 ng/mL; Tmax [1, 2]: 2 h; half-life [1, 2]: 4 h; AUC(0-inf) [1, 2]: 1610 ng·h/mL; MRT inf [1, 2]: 5.6 h |
